Assay results from patent publication US12215140B2, “Method of stabilizing protein contained in specimen and solution for stabilizing protein contained in specimen” (EIKEN KAGAKU KABUSHIKI KAISHA, priority 2018, dated 2025).

Tested on: hemoglobin-haptoglobin complex
Experiment: Stability of hemoglobin (as hemoglobin-haptoglobin complex) in samples preserved at 37° C. in preservation solution containing 1 unit/L haptoglobin, Hb measured by latex agglutination method (Examples 1 to 7)
Parameters: species or system human
Procedure, shortened: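 Latex agglutination (anti-human hemoglobin rabbit polyclonal latex) measured Hb in samples stored at 37 °C up to 21 days; values expressed as % recovery versus day 0. Preservation solution: HEPES 40 mmol/L pH 6.8, BSA 0.1%, NaN3 0.1%, haptoglobin 1 unit/L, phenylboronic acid 0–100 mmol/L, optional sugars; ~300 µg/L Hb, 0.5% feces or none.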

[1] = Feces 3, phenylboronic acid 0.5 mmol/L, 37° C., 7 days
[2] = Feces 3, phenylboronic acid 0.5 mmol/L, 37° C., 14 days
[3] = Feces 3, phenylboronic acid 0.5 mmol/L, 37° C., 21 days
[4] = Feces 3, phenylboronic acid 1 mmol/L, 37° C., 7 days
[5] = Feces 3, phenylboronic acid 1 mmol/L, 37° C., 14 days
[6] = Feces 3, phenylboronic acid 1 mmol/L, 37° C., 21 days
[7] = Feces 3, phenylboronic acid 15 mmol/L, 37° C., 0 days
[8] = Feces 3, phenylboronic acid 15 mmol/L, 37° C., 7 days
[9] = Feces 3, phenylboronic acid 15 mmol/L, 37° C., 14 days
[10] = Feces 3, phenylboronic acid 15 mmol/L, 37° C., 21 days
[11] = Feces 3, phenylboronic acid 50 mmol/L, 37° C., 0 days
[12] = Feces 3, phenylboronic acid 50 mmol/L, 37° C., 7 days
[13] = Feces 3, phenylboronic acid 50 mmol/L, 37° C., 14 days
[14] = Feces 3, phenylboronic acid 50 mmol/L, 37° C., 21 days
[15] = Feces 3, phenylboronic acid 100 mmol/L, 37° C., 0 days
[16] = Feces 3, phenylboronic acid 100 mmol/L, 37° C., 7 days
[17] = Feces 3, phenylboronic acid 100 mmol/L, 37° C., 14 days
[18] = Feces 3, phenylboronic acid 100 mmol/L, 37° C., 21 days
[19] = No feces, phenylboronic acid 0.5 mmol/L, 37° C., 7 days
[20] = No feces, phenylboronic acid 0.5 mmol/L, 37° C., 14 days
[21] = No feces, phenylboronic acid 0.5 mmol/L, 37° C., 21 days
[22] = No feces, phenylboronic acid 1 mmol/L, 37° C., 7 days
[23] = No feces, phenylboronic acid 1 mmol/L, 37° C., 14 days
[24] = No feces, phenylboronic acid 1 mmol/L, 37° C., 21 days
[25] = No feces, phenylboronic acid 15 mmol/L, 37° C., 0 days
[26] = No feces, phenylboronic acid 15 mmol/L, 37° C., 7 days
[27] = No feces, phenylboronic acid 15 mmol/L, 37° C., 14 days
[28] = No feces, phenylboronic acid 15 mmol/L, 37° C., 21 days
[29] = No feces, phenylboronic acid 50 mmol/L, 37° C., 0 days
[30] = No feces, phenylboronic acid 50 mmol/L, 37° C., 7 days
[31] = No feces, phenylboronic acid 50 mmol/L, 37° C., 14 days
[32] = No feces, phenylboronic acid 50 mmol/L, 37° C., 21 days
[33] = No feces, phenylboronic acid 100 mmol/L, 37° C., 0 days
[34] = No feces, phenylboronic acid 100 mmol/L, 37° C., 7 days
[35] = No feces, phenylboronic acid 100 mmol/L, 37° C., 14 days
[36] = No feces, phenylboronic acid 100 mmol/L, 37° C., 21 days

For `OB(O)c1ccccc1` [phenylboronic acid], the “Recovery ratio with respect to Hb concentration after 0 days” value (“Recovery ratio … after 0 days” for short) (Feces 3, phenylboronic acid 0.5 mmol/L, 37° C., 0 days) was 100%, the Hb concentration [1] was 133 µg/L and the “Recovery ratio … after 0 days” value [1] was 47%. The Hb concentration [2] was 104 µg/L, the “Recovery ratio … after 0 days” value [2] was 37% and the Hb concentration [3] was 93 µg/L. For the same compound, the “Recovery ratio … after 0 days” value [3] was 33%, the “Recovery ratio … after 0 days” value (Feces 3, phenylboronic acid 1 mmol/L, 37° C., 0 days) was 100% and the Hb concentration [4] was 159 µg/L. The “Recovery ratio … after 0 days” value [4] was 57%, the Hb concentration [5] was 131 µg/L and the “Recovery ratio … after 0 days” value [5] was 47%. The Hb concentration [6] was 115 µg/L, the “Recovery ratio … after 0 days” value [6] was 41% and the Hb concentration (Feces 3, phenylboronic acid 15 mmol/L, no sugar, 0 days at 37° C.) was 288 µg/L. The Hb concentration (Feces 3, phenylboronic acid 15 mmol/L, no sugar, 7 days at 37° C.) was 224 µg/L, the Hb concentration (Feces 3, phenylboronic acid 15 mmol/L, no sugar, 14 days at 37° C.) was 200 µg/L and the Hb concentration (Feces 3, phenylboronic acid 15 mmol/L, no sugar, 21 days at 37° C.) was 185 µg/L. The Hb concentration [7] was 288 µg/L, the “Recovery ratio … after 0 days” value [7] was 100% and the Hb concentration [8] was 224 µg/L. For the same compound, the “Recovery ratio … after 0 days” value [8] was 78%, the Hb concentration [9] was 200 µg/L and the “Recovery ratio … after 0 days” value [9] was 69%. For the same compound, the Hb concentration [10] was 185 µg/L, the “Recovery ratio … after 0 days” value [10] was 64% and the Hb concentration [11] was 274 µg/L. The “Recovery ratio … after 0 days” value [11] was 100%, the Hb concentration [12] was 204 µg/L and the “Recovery ratio … after 0 days” value [12] was 74%. For the same compound, the Hb concentration [13] was 176 µg/L, the “Recovery ratio … after 0 days” value [13] was 64% and the Hb concentration [14] was 158 µg/L. For the same compound, the “Recovery ratio … after 0 days” value [14] was 58%, the Hb concentration [15] was 247 µg/L and the “Recovery ratio … after 0 days” value [15] was 100%. The Hb concentration [16] was 156 µg/L, the “Recovery ratio … after 0 days” value [16] was 63% and the Hb concentration [17] was 88 µg/L. The “Recovery ratio … after 0 days” value [17] was 36%, the Hb concentration [18] was 53 µg/L and the “Recovery ratio … after 0 days” value [18] was 21%. The “Recovery ratio … after 0 days” value (No feces, phenylboronic acid 0.5 mmol/L, 37° C., 0 days) was 100%, the Hb concentration [19] was 248 µg/L and the “Recovery ratio … after 0 days” value [19] was 96%. The Hb concentration [20] was 243 µg/L, the “Recovery ratio … after 0 days” value [20] was 95% and the Hb concentration [21] was 246 µg/L. The “Recovery ratio … after 0 days” value [21] was 96%, the “Recovery ratio … after 0 days” value (No feces, phenylboronic acid 1 mmol/L, 37° C., 0 days) was 100% and the Hb concentration [22] was 244 µg/L. The “Recovery ratio … after 0 days” value [22] was 92%, the Hb concentration [23] was 241 µg/L and the “Recovery ratio … after 0 days” value [23] was 91%. For the same compound, the Hb concentration [24] was 244 µg/L, the “Recovery ratio … after 0 days” value [24] was 92% and the Hb concentration (No feces, phenylboronic acid 15 mmol/L, no sugar, 0 days at 37° C.) was 286 µg/L. It also gave a Hb concentration (No feces, phenylboronic acid 15 mmol/L, no sugar, 7 days at 37° C.) of 262 µg/L, a Hb concentration (No feces, phenylboronic acid 15 mmol/L, no sugar, 14 days at 37° C.) of 253 µg/L and a Hb concentration [25] of 286 µg/L. For the same compound, the “Recovery ratio … after 0 days” value [25] was 100%, the Hb concentration [26] was 262 µg/L and the “Recovery ratio … after 0 days” value [26] was 92%. The Hb concentration [27] was 253 µg/L, the “Recovery ratio … after 0 days” value [27] was 88% and the Hb concentration [28] was 264 µg/L. For the same compound, the “Recovery ratio … after 0 days” value [28] was 92%, the Hb concentration [29] was 260 µg/L and the “Recovery ratio … after 0 days” value [29] was 100%. The Hb concentration [30] was 242 µg/L, the “Recovery ratio … after 0 days” value [30] was 93% and the Hb concentration [31] was 228 µg/L. For the same compound, the “Recovery ratio … after 0 days” value [31] was 88%, the Hb concentration [32] was 235 µg/L and the “Recovery ratio … after 0 days” value [32] was 90%. The Hb concentration [33] was 239 µg/L, the “Recovery ratio … after 0 days” value [33] was 100% and the Hb concentration [34] was 198 µg/L. The “Recovery ratio … after 0 days” value [34] was 83%, the Hb concentration [35] was 183 µg/L and the “Recovery ratio … after 0 days” value [35] was 77%. For the same compound, the Hb concentration [36] was 178 µg/L, the “Recovery ratio … after 0 days” value [36] was 74% and the apparent recovery ratio (addition of 50 mmol/L or more phenylboronic acid) was “decreased”. For the same compound, the “decrease in the apparent recovery ratios” value (phenylboronic acid 50 mmol/L in preservation solutions to which a sugar (100 mmol/L) was added) was “not observed”, the “phenylboronic acid concentration at which the recovery ratio of hemoglobin reached the maximum” value (samples containing feces, 37° C.) was 15 mmol/L and the “improvement of recovery ratio by addition of phenylboronic acid” value (samples containing no fecal specimens) was “not observed”.
